Settings: for log10 BCF / log10 biotransformation half-life (days): fish

SMILES	melting point [°C]	boiling point [°C]	other results
CC(CCC(=O)O)n1nc2ccccc2n1 (stereo not given)	73	–	–
CCN(CC)C(=O)SCc1ccccc1Cl	9	–	log10 vapour pressure (mmHg): -4.03
CC12CCC(CC1=O)C2(C)C (stereo not given)	179	206	log10 vapour pressure (mmHg): -0.665; ready biodegradability: readily biodegradable
Oc1ccc(Cl)c(Cl)c1Cl	83.5	–	–
COc1ccccc1F	-39	154	–
CNc1ccc(Cl)cc1	–	240	–
CC(C(O)c1ccc(O)cc1)N1CCC(Cc2ccccc2)CC1 (stereo not given)	114	–	–
Cc1ccc(N)cc1F	31	–	–
CC(C)CC(C)(C)C	-107	99.2	log10 biodegradation half-life (days): 1.6; log10 vapour pressure (mmHg): 1.69; ready biodegradability: not readily biodegradable
CC(Cl)=C(Cl)Cl	–	118	–
O=C1C=C(Cl)C(=O)O1	33	196	–
CC(=O)c1occc1O	100	–	–
Clc1cc(Cl)c(Cl)c(Oc2ccccc2)c1	–	–	log10 vapour pressure (mmHg): -3.66
O=C=O	-56.5	-78.5	log10 vapour pressure (mmHg): 4.68
CC(=O)CC(=O)OCCCl	–	198	–
CCc1sccc1C	–	161	–
Brc1cccc2c1Oc1cccc(Br)c1O2	207	–	log10 vapour pressure (mmHg): -5.95
Nc1ccc(F)cc1	-0.8	182	–
CC(C)c1cccc2ccccc12	-16	268	log10 vapour pressure (mmHg): -2.22
CC1CCCC1C (stereo not given)	–	–	log10 biodegradation half-life (days): 0.602; log10 vapour pressure (mmHg): 1.67
CCOC=O	-79.6	54.4	log10 Henry constant (atm·m³/mol): -3.41; log10 Koa: 2.19; log10 vapour pressure (mmHg): 2.39
CC(C)(O)CCc1ccccc1	24.5	–	–
CCCCN(CCO)CCCC	-75	229	ready biodegradability: not readily biodegradable
S=C(S)NCCNC(=S)S	–	–	ready biodegradability: not readily biodegradable
COc1ccc(C(c2ccc(OC)cc2)C(Cl)(Cl)Cl)cc1	87	346	log10 Henry constant (atm·m³/mol): -6.69; log10 Koc (L/kg): 4.9; log10 BCF: 2.5
Fc1ccc(F)cc1	-13	89	log10 vapour pressure (mmHg): 1.81

SMILES	melting point [°C]	boiling point [°C]	other results
CCCCCCCCCCCCCCCCCC(=O)Oc1ccccc1	52	–	–
O=C(Nc1ccc(Cl)cc1)c1cc(Br)ccc1O	240	–	–
C[C@]12CC[C@H](O)C[C@H]1CC[C@@H]1[C@@H]2[C@H](O)C[C@]2(C)[C@@H](c3ccc(=O)oc3)CC[C@]12O	254	–	–
C[Si](C)(C)O[Si](C)(C)O[Si](C)(C)C	-80	153	log10 Henry constant (atm·m³/mol): 1.49; log10 vapour pressure (mmHg): 0.524
Nc1ccc(Oc2ccc(N)cc2)cc1	–	350	ready biodegradability: not readily biodegradable
O=C(F)c1ccccc1	-28	154	–
CC(C)C1(Cc2ccco2)C(=O)NC(=O)NC1=O	169	–	–
C1CCC2OC2C1 (stereo not given)	–	132	–
CCCCCl	-123	78.6	log10 Henry constant (atm·m³/mol): -1.78; log10 Koa: 2.72; log10 vapour pressure (mmHg): 2.01; ready biodegradability: not readily biodegradable; log10 BCF: 1.23; log10 biotransformation half-life (days): -0.45
N=C(N)NC(=N)N	136	–	–
CCCC(C)(C)c1ccccc1	–	206	–
O=[N+]([O-])c1cccc(-c2ccccc2)c1	62	–	–
CCCCC(C(N)=O)n1nnc2ccccc21 (stereo not given)	118	–	–
CCN(CC)C(=O)C1CN2CCc3cc(OC)c(OC)cc3C2CC1OC(C)=O (stereo not given)	131	–	–
CNC	–	6.8	log10 Henry constant (atm·m³/mol): -4.75; log10 Koa: 2; log10 vapour pressure (mmHg): 3.18; ready biodegradability: readily biodegradable
CCN(CCO)CCO	-50	247	ready biodegradability: not readily biodegradable
CCCCCCBr	-84.7	155	log10 vapour pressure (mmHg): 0.591
O=Cc1ccoc1	–	145	–
Fc1nc(F)c(Cl)c(F)n1	–	114	–
CCOC(=O)/C=C/C(=O)OCC	–	–	ready biodegradability: readily biodegradable
FC(F)(F)C(F)(F)C(F)(F)C(F)(F)C(F)(F)C(F)(F)C(F)(F)F	-78	82.5	log10 vapour pressure (mmHg): 1.88
Clc1cc(Cl)c2cc(Cl)ccc2c1	–	–	log10 BCF: 4.43
CCN(Cc1c(F)cccc1Cl)c1c([N+](=O)[O-])cc(C(F)(F)F)cc1[N+](=O)[O-]	102	–	log10 Koc (L/kg): 4; log10 vapour pressure (mmHg): -6.62
O=C(O)CCC(=O)C(=O)O	116	–	–
COc1ccc2c(c1OC)C(=O)O[C@@H]2[C@H]1c2c(cc3c(c2OC)OCO3)CCN1C	176	–	–
CC1=CCC(=C(C)C)CC1	–	186	log10 Henry constant (atm·m³/mol): -1.58; log10 vapour pressure (mmHg): -0.129; ready biodegradability: readily biodegradable

SMILES	melting point [°C]	boiling point [°C]	other results
c1ccc2c(c1)nnc1ccccc12	158	–	–
CCCCCCCS	-43	177	log10 vapour pressure (mmHg): 0.116
O=NN(c1ccccc1)c1ccccc1	66.5	–	log10 Koc (L/kg): 3.08; ready biodegradability: readily biodegradable; log10 BCF: 1.33; log10 biotransformation half-life (days): -0.91
CC(Br)C(C)(Br)Br (stereo not given)	1.8	206	–
CN1CN(C)CN(C)C1	-27	163	–
Nc1nnc(-c2ccc([N+](=O)[O-])o2)s1	280	–	–
O=Cc1ccc(O)c(O)c1O	160	–	–
CC(=O)CC(=O)C(F)(F)F	–	106	–
CCOP(=S)(OCC)SCS(=O)(=O)C(C)(C)C	–	–	log10 Koc (L/kg): 2.18
CCC1(c2ccccc2)CCC(=O)NC1=O (stereo not given)	84	–	–
O=C1OC2(c3ccccc31)c1ccc(O)c(Br)c1Oc1c2ccc(O)c1Br	285	–	–
CN[C@@H](Cc1ccc(O)cc1)C(=O)O	293	–	–
CCCCCCCCOC(=O)CCCCC	-28	275	–
CCCOCC(C)OCC(C)O (stereo not given)	7.08	212	–
C1CCCCCCCCCCC1	60.4	247	ready biodegradability: not readily biodegradable; log10 BCF: 3.91; log10 biotransformation half-life (days): 1.33
CC=C(C)C(C)C	–	–	log10 vapour pressure (mmHg): 1.83
CC1Cc2ccccc2N1NC(=O)c1ccc(Cl)c(S(N)(=O)=O)c1 (stereo not given)	161	–	–
COC(=O)c1c(Cl)nn(C)c1S(=O)(=O)NC(=O)Nc1nc(OC)cc(OC)n1	176	–	–
C1CCC(CCCCC2CCCCC2)CC1	12	305	–
CCN(CC)S(=O)(=O)c1ccc(C(=O)O)cc1	193	–	–
c1cnc2ncncc2n1	140	–	–
O=C(O)COc1ccc(Cl)cc1Cl	140	–	log10 Koc (L/kg): 1.66; log10 vapour pressure (mmHg): -4.08; ready biodegradability: not readily biodegradable
CC(C)NC(=N)NC(=N)Nc1ccc(Cl)cc1	129	–	–
CC(C)(C)c1cc(C(=O)O)cc(C(C)(C)C)c1O	208	–	–
CCCOC(=O)CCC	-95.2	143	log10 vapour pressure (mmHg): 0.775
CC(C)CCCCCCCOC(=O)c1ccccc1C(=O)OCCCCCCCC(C)C	-45.6	–	log10 vapour pressure (mmHg): -6.28; ready biodegradability: readily biodegradable; log10 BCF: 1.16

SMILES	melting point [°C]	boiling point [°C]	other results
N#CC(=O)c1ccccc1	32.5	206	–
CCNc1nc(NC(C)C)nc(OC)n1	–	–	log10 Koc (L/kg): 2.64; log10 vapour pressure (mmHg): -5.54
CC(O)CCO (stereo not given)	–	208	log10 vapour pressure (mmHg): -1.7
NC(=O)c1c(F)cccc1F	146	–	–
Cc1cccnc1	-18.1	144	log10 Henry constant (atm·m³/mol): -5.11; log10 vapour pressure (mmHg): 0.782; ready biodegradability: not readily biodegradable
Clc1ccc(-c2ccc(Cl)c(Cl)c2)cc1Cl	–	–	log10 Henry constant (atm·m³/mol): -5.03; log10 Koa: 9.7; log10 vapour pressure (mmHg): -4.78; log10 BCF: 4.62; log10 biotransformation half-life (days): 1.35
OCCN1CCOCC1	-1.6	227	ready biodegradability: readily biodegradable
FC(Br)Br	-78	64.9	–
CN1CCCC(CO)C1 (stereo not given)	–	142	–
Cc1ccc(Cl)cc1N	26	239	–
CCOC(=O)CCN(SN(C)C(=O)Oc1cccc2c1OC(C)(C)C2)C(C)C	–	–	log10 vapour pressure (mmHg): -6.7
Nc1cc(N)nc(N)n1	250	–	–
CC(O)Cn1c(=O)c2c(ncn2C)n(C)c1=O (stereo not given)	141	–	–
CC(C)[C@@H]1CC[C@@H](C)CC1=O	-6	207	–
COCCOCCOCCO	-44	249	ready biodegradability: readily biodegradable
Nc1cccc(N)c1	63.5	285	log10 vapour pressure (mmHg): -2.68; ready biodegradability: not readily biodegradable; log10 BCF: 0.81
O=C1c2ccccc2C(=O)C1c1ccccc1	150	–	–
CC(C)=CCCC=C(C)C	-74.4	166	–
CC1=CC(=O)O[C@@]2(C1)C[C@H]1CC[C@@H]2CN1C	54.5	–	–
CC(C)(C)OOC(C)(C)C	-40	111	log10 vapour pressure (mmHg): 1.4
CN(C)C(=O)Nc1ccc(F)cc1	–	–	log10 Koc (L/kg): 1.43
C=C(Br)c1ccccc1	-44	–	ready biodegradability: not readily biodegradable
CCS(=O)(=O)c1nnc(N(C)C(=O)NC)s1	156	–	–
CC(O)C(C)CO (stereo not given)	–	200	–
Cc1cc2ccccc2cn1	68	249	–
CCC/C=C/COC(C)=O	–	166	–

SMILES	melting point [°C]	boiling point [°C]	other results
c1ccc2c(-c3cccc4ccccc34)cccc2c1	160	–	–
CCCC(C)(Cl)Cl	128	–	–
CC(C)OC(=O)C1(S(=O)(=O)c2ccc(Cl)cc2)CC1	89.8	–	–
CC(C)CCCBr	–	145	–
OCCNCO	–	–	ready biodegradability: readily biodegradable
O=C(Cl)C(F)(F)F	146	-27	log10 Henry constant (atm·m³/mol): -3.35
C=C(C)Cl	-137	22.6	log10 vapour pressure (mmHg): 2.91
c1ccc(C2CCCC2)cc1	–	219	–
CSc1ccc(O)cc1	–	–	ready biodegradability: not readily biodegradable
C1CSCSC1	54	–	–
CN(C)c1nc(N(C)C)nc(N(C)C)n1	173	–	–
Cc1ccccc1F	-62	115	log10 vapour pressure (mmHg): 1.39
O=C1c2ccccc2C(=O)N1CCCBr	75	–	–
O=C(O)COc1ccc(Cl)cc1CO	141	–	log10 vapour pressure (mmHg): -6.18
Cc1cccc2c1ccc1cc(C(C)C)ccc12	101	390	–
Cc1c(Cl)c(=O)oc2cc(OP(=O)(OCCCl)OCCCl)ccc12	91	–	–
C[SiH]1O[SiH](C)O[SiH](C)O[SiH](C)O1 (stereo not given)	-65	134	–
CC(=O)NN	67	–	–
O=C(O)c1c(F)cccc1F	159	–	–
CCOC(=O)c1ccccn1	1	243	–
Cc1cc(C)[nH]n1	108	218	–
Cc1cc(O)cc(O)c1	108	290	ready biodegradability: not readily biodegradable

Reference: the OPERA property sets (Mansouri et al. 2018)
